{"source": "patent US4997757A", "about": "“Process for detecting potential carcinogens” (GeneBioMed, Inc., priority 1988, dated 1991)", "key": {"[1]": {"tested_on": "strain RS112 (his3 deletion alleles)", "test": "SCC (sister chromatid conversion) intrachromosomal recombination system, deletion alleles of his3", "type": "cell-based, Saccharomyces cerevisiae", "conditions": "strain RS112", "source_text": "In the most preferred embodiment it is preferable to grow the cells in a medium which selects against the occurrence of the genome rearrangement to keep the control values as low as possible. In the embodiment described in FIG. 1 it is shown that the LEU2 gene of construct 10 is lost after the genome rearrangement which results in construct 22. Therefore cells containing construct 10, before the rearrangement are able to grow in the absence of leucine in the medium, but cells containing construct 22, after the genome rearrangement are not able to grow in the absence of leucine. After the genome rearrangement cells containing construct 22 are able to grow in the absence of histidine in the medium, but cells containing construct 10 before the genome rearrangement are not able to grow in the absence of histidine. Therefore the selection scheme which was used for Example 3 involves growth of the yeast culture in medium lacking leucine but containing histidine before and during the exposure to the potential carcinogens or other test agents. After the exposure the cells which have undergone genome rearrangement are selected on medium lacking histidine but containing leucine.\n(§1) It is preferred that, when the cells are to be grown in the presence of the agent, logarithmic phase cultures are used. In one embodiment, for each of the test strains, a cell suspension of 2×10^6 cells per milliliter-LEU medium be prepared from a logarithmic phase culture pregrown in liquid-LEU medium. The whole mix is aliquoted into portions of 5 milliliter into disposable plastic tubes in the presence of the agent to be tested, the tubes are sealed and shaken continuously for 17 hours.\nAfter the yeast cells have been exposed to both the agent to be tested and the selection medium under the conditions of the test and have been incubated for some time period of about more than one day preferably at 30 degrees Celsius or any other temperature which allows growth of the yeast cells used, the number of colonies formed by cells which have undergone genome rearrangement are counted and compared with the number of colonies of yeast cells identical in substantially every respect with the exception of not having been exposed to the suspected carcinogenic agent. The rates of genome rearrangement for both the control and experimental samples are then compared.\nPlasmids were constructed as substrates to study intrachromosomal recombination; see an earlier part of the specification and Example 1. The plasmids pRS6 (FIG. 7, construct 108) and pRS11 (FIG. 9, construct 118) both contained an internal fragment of the HIS3 gene as well as one selectable marker (LEU2). pRS11 in addition contained the 2 μm origin of replication to select for the presence of the plasmid after plasmid excision. pRS11FRT-had the FLP recombination site disrupted (see Example 1). Yeast strains RSY6 containing construct 10, RSY11 containing construct 118 and RSY11FRT- (see Example 1) were used. They contained the respective pRS plasmids integrated into the HIS3 gene of strain S35/2-10C giving rise to disruptions of the HIS3 gene construct 10 or analogs to it (FIG. 10). The two resulting his3 deletion alleles (FIG. 10) shared about 400 basepairs of homology and thus could interact with each other by homologous recombination. Reversion of his- to HIS+ occurred at a frequency of about 4×10^-4 in all three strains. All of 100 tested HIS+ revertants of strain RSY6 were leu-. Because of this observation strains used for recombination studies were always pregrown on -LEU medium to prevent growth of HIS+ revertants. Therefore the frequency of HIS+ revertants is a measure of the recombination rate.\nThe strain used in this example was RS112 which was obtained by crossing strain RSY6 with strain 428. RSY6 contains the SCC system and was deposited at November 30 under \"ATCC designation number 20871\" with the American Type Culture Collection of 12301 Parklawn Drive, Rockville, Md. 20852. […]"}, "[2]": {"conditions": "in vivo; cited from earlier work"}, "mice": {"tested_on": "mice", "conditions": "cited from earlier work"}, "rats": {"tested_on": "rats", "conditions": "cited from earlier work"}, "rat liver": {"tested_on": "rat liver", "conditions": "in vivo; cited from earlier work"}, "Salmonella typhimurium": {"tested_on": "Salmonella typhimurium", "conditions": "cited from earlier work"}, "[3]": {"tested_on": "strain RS112 (heteroalleles ade2-40 and ade2-101)", "test": "ICC (interchromosomal gene conversion) between heteroalleles ade2-40 and ade2-101", "type": "cell-based, Saccharomyces cerevisiae", "conditions": "strain RS112", "method": "as §1\n(§2) The strain used in this example was RS112 which was obtained by crossing strain RSY6 with strain 428. RSY6 contains the SCC system and was deposited at November 30 under \"ATCC designation number 20871\" with the American Type Culture Collection of 12301 Parklawn Drive, Rockville, Md. 20852. Strain 428 was obtained from M. Snyder, Department of Biology, at Yale University, New Haven, Conn. and was used because it contains the mutation his3Δ-200, the construction of which has been described in an article by Struhl entitled \"Naturally occurring poly(dA-dT) sequences are upstream promoter elements of constitutive transcription in yeast, published in Proc. Natl. Acad. Sci. USA 82 on pages 8419-8423. Strains containing the his3Δ-200 mutation are readily available to those skilled in the art.\nStrain RS112 has the following genotype: [drawing 2]\nValues for the intrachromosomal recombination system between deletion alleles of his3 are designated as SCC. Also strain RS112 contained heteroallelic mutations in ade2 so that the frequency of interchromosomal gene conversion (ICC) between heteroalleles in a diploid was determined. ICC was measured as recombination between the heteroalleles ade2-40 and ade2-101 by selecting for ADE+. Values obtained are given to compare the performance of the two systems.\nThe frequencies for ICC are given in events per 10^5 survivals, and the frequencies for SCC are given in events per 10^4 survivals. It has to be noted that for sister chromatid recombination in mammalian cells the increase even with potent carcinogens is usually less than ten fold and also slight increases have been taken as positive results. For instance an increase in frequency of two fold has been taken to be significant; see a publication by Rudiger et al. entitled \"Metabolites of diethylstilbestrol induce sister chromatid exchange in human cultured fibroblasts.\" published in Nature 281:392-394)."}, "[4]": {"test": "survival of yeast exposed to agent", "type": "cell-based, Saccharomyces cerevisiae", "source_text": "It is preferred to conduct a preliminary experiment to determine those concentrations of the agent to be tested which should be evaluated in the main experiment. Yeast cells are exposed to a wide range of concentrations of the agent to be tested to determine its cytotoxicity.\nas §1, §2"}, "mammalian cells [5]": {"tested_on": "mammalian cells", "conditions": "cited from earlier work"}, "mammalian cells [6]": {"tested_on": "mammalian cells", "conditions": "cited from earlier work", "remark": "listed apart in the source"}, "strain RS112 [7]": {"tested_on": "strain RS112", "test": "G2 arrest of yeast cells by MBC", "type": "cell-based, Saccharomyces cerevisiae", "conditions": "100 μg/ml, 5 to 7 hours at 30° C.", "method": "(§3) The applicant has reproduced the method published in the aforementioned paper by Fabre et al. Mol. Gen. Genet. 195:139143 (1984) to obtain mostly G1 (stationary) and G2 arrested cells by using Methyl-Benzimidazole-Carbamate (MBC) to arrest the cells in G2 : Strain used for the experiment was RS112, the genotype of which is given below: [drawing 1] Media were the same as described at another part of the specification. Stationary cells were obtained by incubation of cells in liquid YPD at 30° C. for 48 hours. Stationary cells were more than 85% in G1. To obtain cells arrested in G2 the cells were incubated in YPD containing the fungicide methyl benzimidazol-2-yl carbamate (MBC) (stock solution 10 mg/ml) at a concentration of 100 μg/ml at a cell density of 10^7 cells/ml for 5 to 7 hours at 30° C. […] Log phase cells were obtained by incubation of the cells in YEPD for the same time period without MBC. Log phase cultures contained cells in all stages. The cells were irradiated with UV light at a dose of 0-40 J/m2 and cells were held at G1, log or G2 for another two hours to allow repair of the damage in the respective stage. The cells were than collected by centrifugation and washed twice, plated for survivals onto SC medium, for determination of interchromosomal conversion events onto SC-Ade and for determination of SCC onto SC-His."}, "strain RS112 [8]": {"tested_on": "strain RS112", "test": "plating efficiency after MBC treatment", "type": "cell-based, Saccharomyces cerevisiae", "conditions": "100 μg/ml, 5 to 7 hours at 30° C.", "method": "as §3"}}, "data": [{"smiles": "C=CCc1ccc2c(c1)OCO2", "note": "[Safrole]", "values": [{"measurement": "SCC/10^4 cells", "setting": "[1]; 0.05 %", "value": "0.94 /10^4 cells"}, {"measurement": "SCC/10^4 cells", "setting": "[1]; 0.1 %", "value": "1.22 /10^4 cells"}, {"measurement": "SCC/10^4 cells", "setting": "[1]; 0.2 %", "value": "2.4 /10^4 cells"}, {"measurement": "SCC/10^4 cells", "setting": "[1]; 0.4 %", "value": "14.1 /10^4 cells"}, {"measurement": "carcinogenicity", "setting": "[2]", "value": "known carcinogens"}, {"measurement": "carcinogenicity", "setting": "mice", "value": "produces liver cancer in mice and rats"}, {"measurement": "carcinogenicity", "setting": "rats", "value": "produces liver cancer in mice and rats"}, {"measurement": "rat liver foci assay result", "setting": "rat liver", "value": "negative"}, {"measurement": "Ames Assay result", "setting": "Salmonella typhimurium", "value": "negative"}, {"measurement": "ICC/10^5 cells", "setting": "[3]; 0.05 %", "value": "1.07 /10^5 cells"}, {"measurement": "ICC/10^5 cells", "setting": "[3]; 0.1 %", "value": "0.59 /10^5 cells"}, {"measurement": "ICC/10^5 cells", "setting": "[3]; 0.2 %", "value": "0.82 /10^5 cells"}, {"measurement": "ICC/10^5 cells", "setting": "[3]; 0.4 %", "value": "1.36 /10^5 cells"}, {"measurement": "viability at 17 h", "setting": "[4]; yeast strain rs112, 0.05 %", "value": 112, "unit": "%"}, {"measurement": "viability at 17 h", "setting": "[4]; yeast strain rs112, 0.1 %", "value": 95, "unit": "%"}, {"measurement": "viability at 17 h", "setting": "[4]; yeast strain rs112, 0.2 %", "value": 76, "unit": "%"}, {"measurement": "viability at 17 h", "setting": "[4]; yeast strain rs112, 0.4 %", "value": 4.6, "unit": "%"}, {"measurement": "chromosomal aberration assay result", "setting": "mammalian cells [5]", "value": "negative"}, {"measurement": "SCE assay result", "setting": "mammalian cells [6]", "value": "negative"}]}, {"smiles": "COC(=O)Nc1nc2ccccc2[nH]1", "note": "[MBC, methyl benzimidazol-2-yl carbamate]", "values": [{"measurement": "cells showing characteristic G2 arrest", "setting": "strain RS112 [7]", "value": "more than 90%"}, {"measurement": "plating efficiency", "setting": "strain RS112 [8]", "value": "never decreased"}]}]}
